{"source": "patent US20140256660A1", "about": "“ANTIBIOTIC CONJUGATES LINKED WITH STEROID DRUGS” (Allergan, Inc., priority 2013, published 2014)", "test_system": "human recombinant carboxylesterases", "test": "In vitro metabolic stability (rate of metabolite formation) in human recombinant carboxylesterases", "type": "in vitro ADME", "details": "human recombinant carboxylesterases 0.1 mg/mL, 1 μM test compound, pH 6.0, 37° C.", "method": "Dutch Belted rabbits were euthanized with an overdose of sodium pentobarbital. The corneas were collected and homogenized in ice-cold potassium chloride solution (pH=7.4). The homogenate was centrifuged at 755×g for 30 min at 4° C. and aliquots of the supernatant were stored at or below −70° C. until metabolism experiments were conducted. Prior to storing the homogenates an aliquot was removed for determination of protein concentrations by calculating the 260 nm absorbance using a spectrophotometer. Human recombinant carboxylesterases were purchased from a commercial vendor (BD Gentest™, Bedford, Mass.)\nAll metabolic stability experiments were performed in triplicate in 96-well plate format. The final incubation mixture contained 1 μM test compound, 0.3 mg/mL corneal protein homogenate or 0.1 mg/mL human recombinant carboxylesterase mixture in a final volume of 0.5 mL 0.1 M potassium phosphate buffer (pH=6.0). The final percentage of solvent in the incubation was less than 1.0% to prevent inhibition of enzymatic activity. Following a pre-incubation at 37° C., test article (i.e. ester linked hybrids) was added to initiate the reaction. At designated time points (typically less than 60 minutes to capture the linear range of metabolite formation), 0.05 mL aliquots were removed from the incubation mixtures using a clean pipet tip and immediately placed in organic solvent to stop any esterase activity.\nHydrolysis of the metabolites was confirmed to be due to esterase activity and not chemical lability. The samples were analyzed by liquid chromatography with mass spectrometry (LC-MS/MS) detection to determine the metabolite concentrations resulting from the metabolism of ester linked hybrids. Internal standards were used to compensate for variability from sample processing, chromatographic elution, mass spectrometer response and ion suppression by matrix components.", "data": [{"molecule": "COc1c(N2C[C@H]3CCCN[C@H]3C2)c(F)cc2c(=O)c(C(=O)OCCCOC(=O)c3ccc(C(=O)OCC(=O)[C@@]4(O)[C@H](C)C[C@H]5[C@@H]6CCC7=CC(=O)C=C[C@]7(C)[C@@]6(F)[C@@H](O)C[C@@]54C)cc3)cn(C3CC3)c12", "note": "(relative stereo) [Compound 54, 3-[({1-cyclopropyl-6-fluoro-8-methoxy-7-[(4aR,7aR)-octahydro-6H-pyrrolo[3,4-b]pyridin-6-yl]-4-oxo-1,4-dihydroquinolin-3-yl}carbonyl)oxy]propyl 2-[(8S,9R,10S,11S,13S,14S,16R,17R)-9-fluoro-11,17-dihydroxy-10,13,16-trimethyl-3-oxo-6,7,8,9,10,11,12,13,14,15,16,17-dodecahydro-3H-cyclopenta[a]phenanthren-17-yl]-2-oxoethyl rel-benzene-1,4-dicarboxylate]", "values": [{"measurement": "Rate of formation Metabolite 1 (Dexamethasone)", "result": "67.8 ± 1.78", "unit": "nM/min/mg"}, {"measurement": "Rate of formation Metabolite 2 (Moxifloxacin)", "result": "0.717 ± 0.625", "unit": "nM/min/mg"}]}, {"molecule": "COc1c(N2CC3CCCN(C(=O)OCOC(=O)CCC(=O)OCC(=O)[C@]4(O)CC[C@@H]5[C@H]6CCC7=CC(=O)C=C[C@@]7(C)[C@@H]6[C@H](O)C[C@]54C)C3C2)c(F)cc2c(=O)c(C(=O)O)cn(C3CC3)c12", "note": "(relative stereo) [Compound 59, rel-1-cyclopropyl-7-[1-({[(4-{2-[(8R,9R,10S,11R,13R,14R,17S)-11,17-dihydroxy-10,13-dimethyl-3-oxo-6,7,8,9,10,11,12,13,14,15,16,17-dodecahydro-3H-cyclopenta[a]phenanthren-17-yl]-2-oxoethoxy}-4-oxobutanoyl)oxy]methoxy}carbonyl)octahydro-6H-pyrrolo[3,4-b]pyridin-6-yl]-6-fluoro-8-methoxy-4-oxo-1,4-dihydroquinoline-3-carboxylic acid]", "values": [{"measurement": "Rate of formation Metabolite 2 (Moxifloxacin)", "result": "350 ± 180", "unit": "nM/min/mg"}, {"measurement": "Rate of formation Metabolite 1 (Prednisolone)", "result": "416 ± 192", "unit": "nM/min/mg"}]}, {"molecule": "COc1c(N2CC3CCCN(C(=O)OCOC(=O)CCC(=O)N[C@@H](C(=O)OCC(=O)[C@]4(O)CCC5C6CCC7=CC(=O)C=C[C@@]7(C)C6[C@H](O)C[C@]54C)C(C)C)C3C2)c(F)cc2c(=O)c(C(=O)O)cn(C3CC3)c12", "note": "(relative stereo) [Compound 61, rel-1-cyclopropyl-7-{1-[(10R)-14-[(10S,11R,13R,17S)-11,17-dihydroxy-10,13-dimethyl-3-oxo-6,7,8,9,10,11,12,13,14,15,16,17-dodecahydro-3H-cyclopenta[a]phenanthren-17-yl]-5,8,11,14-tetraoxo-10-(propan-2-yl)-2,4,12-trioxa-9-azatetradecan-1-oyl]octahydro-6H-pyrrolo[3,4-b]pyridin-6-yl}-6-fluoro-8-methoxy-4-oxo-1,4-dihydroquinoline-3-carboxylic acid]", "values": [{"measurement": "Rate of formation Metabolite 2 (Moxifloxacin)", "result": "18.5 ± 1.7", "unit": "nM/min/mg"}, {"measurement": "Rate of formation Metabolite 1 (Prednisolone)", "result": "11.8 ± 0.5", "unit": "nM/min/mg"}]}, {"molecule": "COc1c(N2C[C@@H]3CCCN[C@@H]3C2)c(F)cc2c(=O)c(C(=O)OCOC(=O)OCC(=O)[C@]3(O)CC[C@@H]4[C@H]5CCC6=CC(=O)C=C[C@@]6(C)C5[C@H](O)C[C@]43C)cn(C3CC3)c12", "note": "(relative stereo) [Compound 64, [({2-[(8R,10S,11R,13R,14R,17S)-11,17-dihydroxy-10,13-dimethyl-3-oxo-6,7,8,9,10,11,12,13,14,15,16,17-dodecahydro-3H-cyclopenta[a]phenanthren-17-yl]-2-oxoethoxy}carbonyl)oxy]methyl rel-1-cyclopropyl-6-fluoro-8-methoxy-7-[(4aS,7aS)-octahydro-6H-pyrrolo[3,4-b]pyridin-6-yl]-4-oxo-1,4-dihydroquinoline-3-carboxylate]", "values": [{"measurement": "Rate of formation Metabolite 2 (Moxifloxacin)", "result": "644 ± 20", "unit": "nM/min/mg"}, {"measurement": "Rate of formation Metabolite 1 (Prednisolone)", "result": "641 ± 22", "unit": "nM/min/mg"}]}, {"molecule": "COc1c(N2C[C@@H]3CCCN[C@@H]3C2)c(F)cc2c(=O)c(C(=O)OC(C)OC(=O)OCC(=O)[C@]3(O)CC[C@@H]4[C@H]5CCC6=CC(=O)C=C[C@@]6(C)C5[C@H](O)C[C@]43C)cn(C3CC3)c12", "note": "(relative stereo) [Compound 65, 1-[({2-[(8R,10S,11R,13R,14R,17S)-11,17-dihydroxy-10,13-dimethyl-3-oxo-6,7,8,9,10,11,12,13,14,15,16,17-dodecahydro-3H-cyclopenta[a]phenanthren-17-yl]-2-oxoethoxy}carbonyl)oxy]ethyl rel-1-cyclopropyl-6-fluoro-8-methoxy-7-[(4aS,7aS)-octahydro-6H-pyrrolo[3,4-b]pyridin-6-yl]-4-oxo-1,4-dihydroquinoline-3-carboxylate]", "values": [{"measurement": "Rate of formation Metabolite 2 (Moxifloxacin)", "result": "482 ± 72", "unit": "nM/min/mg"}, {"measurement": "Rate of formation Metabolite 1 (Prednisolone)", "result": "364 ± 27", "unit": "nM/min/mg"}]}, {"molecule": "C[C@H]1C[C@H]2[C@@H]3CCC4=CC(=O)C=C[C@]4(C)[C@@]3(F)[C@@H](O)C[C@]2(C)[C@@]1(O)C(=O)COC(=O)CCC(=O)OC[C@@H](NC(=O)C(Cl)Cl)[C@H](O)c1ccc([N+](=O)[O-])cc1", "note": "(relative stereo) [Compound 73, (2R,3R)-2-[(dichloroacetyl)amino]-3-hydroxy-3-(4-nitrophenyl)propyl 2-[(8S,9R,10S,11S,13S,14S,16S,17R)-9-fluoro-11,17-dihydroxy-10,13,16-trimethyl-3-oxo-6,7,8,9,10,11,12,13,14,15,16,17-dodecahydro-3H-cyclopenta[a]phenanthren-17-yl]-2-oxoethyl rel-butanedioate]", "values": [{"measurement": "Rate of formation Metabolite 1 (Betamethasone)", "setting": "metabolite Betamethasone", "result": "1440 ± 120", "unit": "nM/min/mg"}, {"measurement": "Rate of formation Metabolite 2 (Chloramphenicol)", "setting": "metabolite Chloramphenicol", "result": "107 ± 13", "unit": "nM/min/mg"}]}, {"molecule": "rel-1-cyclopropyl-6-fluoro-7-[4-(4-{2-[(8R,9S,10R,11R,13R,14R,16S,17S)-9-fluoro-11,17-dihydroxy-10,13,16-trimethyl-3-oxo-6,7,8,9,10,11,12,13,14,15,16,17-dodecahydro-3H-cyclopenta[a]phenanthren-17-yl]-2-oxoethoxy}-4-oxobutanoyl)-3-methylpiperazin-1-yl]-8-methoxy-4-oxo-1,4-dihydroquinoline-3-carboxylic acid [Compound 10]", "values": [{"measurement": "Rate of formation Metabolite 1 (Dexamethasone)", "result": "737 ± 28", "unit": "nM/min/mg"}, {"measurement": "Rate of formation Metabolite 2 (Gatifloxacin)", "setting": "metabolite Gatifloxacin", "result": "7.71 ± 0.57", "unit": "nM/min/mg"}]}]}
